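Cultured in 96-well plates, cells were exposed to test compound for 48 hours across five concentrations. GI50 = concentration required for 50% inhibition of growth.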 Calls of active or inactive are those of the source. Rule as the data show it: active = GI50 up to about 1.1 µM and inactive = higher.
How the values were obtained:
Assay in all cases: inhibition of tumour cell growth, NCI panel, 48 h
[1] = test system: 786-0
[2] = test system: A549
[3] = test system: ACHN
[4] = test system: CAKI-1
[5] = test system: DLD-1
[6] = test system: DMS-273
[7] = test system: EKVX
[8] = test system: HCC 2998
[9] = test system: HCT-116
[10] = test system: HCT-15
[11] = test system: HOP-62
[12] = test system: HOP-92
[13] = test system: HT-29
[14] = test system: IGROV-1
[15] = test system: KM-20L2
[16] = test system: KM12
[17] = test system: LOX IMVI
[18] = test system: LXFL 529
[19] = test system: M14
[20] = test system: NCI-H23
[21] = test system: NCI-H460
[22] = test system: NCI-H522
[23] = test system: OVCAR-3
[24] = test system: OVCAR-4
[25] = test system: OVCAR-8
[26] = test system: SF-268
[27] = test system: SF-295
[28] = test system: SF-539
[29] = test system: SK-MEL-28
[30] = test system: SK-MEL-2
[31] = test system: SK-MEL-5
[32] = test system: SN12C
[33] = test system: SNB-19
[34] = test system: SNB-78
[35] = test system: SW-620
[36] = test system: TK-10
[37] = test system: U-251
[38] = test system: UACC-257
[39] = test system: UACC-62
[40] = test system: UO-31
[41] = test system: A498
[42] = test system: CCRF-CEM
[43] = test system: COLO 205
[44] = test system: DMS-114
[45] = test system: HL-60
[46] = test system: HOP-18
[47] = test system: K562
[48] = test system: M19-MEL
[49] = test system: MOLT-4
[50] = test system: NCI-H226
[51] = test system: OVCAR-5
[52] = test system: RPMI-8226
[53] = test system: RXF 393
[54] = test system: SNB-75
[55] = test system: SR

SMILES: Cc1ccc(C(=O)NC(C)(C)C)cc1/N=N/N(C)C
- GI50 [1]: > 100 µM (inactive)
- GI50 [2]: > 100 µM (inactive)
- GI50 [3]: > 100 µM (inactive)
- GI50 [4]: > 100 µM (inactive)
- GI50 [5]: > 100 µM (inactive)
- GI50 [6]: > 100 µM (inactive)
- GI50 [7]: > 100 µM (inactive)
- GI50 [8]: > 100 µM (inactive)
- GI50 [9]: > 100 µM (inactive)
- GI50 [10]: > 100 µM
- GI50 [11]: > 100 µM (inactive)
- GI50 [12]: > 100 µM (inactive)
- GI50 [13]: > 100 µM (inactive)
- GI50 [14]: > 100 µM (inactive)
- GI50 [15]: > 100 µM (inactive)
- GI50 [16]: > 100 µM (inactive)
- GI50 [17]: > 100 µM (inactive)
- GI50 [18]: > 100 µM (inactive)
- GI50 [19]: > 100 µM (inactive)
- GI50 [20]: > 100 µM (inactive)
- GI50 [21]: > 100 µM (inactive)
- GI50 [22]: 50.5 µM (inactive)
- GI50 [23]: 69.5 µM (inactive)
- GI50 [24]: > 100 µM (inactive)
- GI50 [25]: > 100 µM (inactive)
- GI50 [26]: 42 µM (inactive)
- GI50 [27]: > 100 µM (inactive)
- GI50 [28]: > 100 µM (inactive)
- GI50 [29]: > 100 µM (inactive)
- GI50 [30]: > 100 µM (inactive)
- GI50 [31]: > 100 µM (inactive)
- GI50 [32]: > 100 µM (inactive)
- GI50 [33]: 60.7 µM (inactive)
- GI50 [34]: > 100 µM (inactive)
- GI50 [35]: > 100 µM (inactive)
- GI50 [36]: > 100 µM (inactive)
- GI50 [37]: > 100 µM (inactive)
- GI50 [38]: > 100 µM (inactive)
- GI50 [39]: > 100 µM (inactive)
- GI50 [40]: > 100 µM (inactive)

SMILES: C[n+]1cccc(NC(=O)c2ccc(NC(=O)C34CCC(C(=O)Nc5ccc(C(=O)Nc6ccc[n+](C)c6)cc5)(CC3)CC4)cc2)c1
- GI50 [1]: 3.7 µM (inactive)
- GI50 [41]: 18 µM (inactive)
- GI50 [2]: 22.5 µM (inactive)
- GI50 [3]: 17.9 µM (inactive)
- GI50 [42]: 15.2 µM (inactive)
- GI50 [43]: > 10 µM (inactive)
- GI50 [5]: 10.9 µM (inactive)
- GI50 [44]: 13.8 µM (inactive)
- GI50 [6]: 6.82 µM (inactive)
- GI50 [7]: 26.9 µM (inactive)
- GI50 [9]: 33.5 µM (inactive)
- GI50 [10]: 58.2 µM
- GI50 [45]: 1.87 µM (inactive)
- GI50 [46]: 25.2 µM (inactive)
- GI50 [11]: 25.5 µM (inactive)
- GI50 [12]: > 100 µM (inactive)
- GI50 [13]: 45.9 µM (inactive)
- GI50 [14]: 13.5 µM (inactive)
- GI50 [47]: 2.55 µM (inactive)
- GI50 [15]: > 100 µM (inactive)
- GI50 [16]: 1.92 µM (inactive)
- GI50 [17]: 38.5 µM (inactive)
- GI50 [18]: 2.81 µM (inactive)
- GI50 [19]: > 100 µM (inactive)
- GI50 [48]: 54.1 µM (inactive)
- GI50 [49]: 56.2 µM (inactive)
- GI50 [50]: > 100 µM (inactive)
- GI50 [20]: 56.5 µM (inactive)
- GI50 [21]: 7.45 µM (inactive)
- GI50 [22]: 5.42 µM (inactive)
- GI50 [24]: > 100 µM (inactive)
- GI50 [51]: > 100 µM (inactive)
- GI50 [25]: 42.7 µM (inactive)
- GI50 [52]: 3.92 µM (inactive)
- GI50 [53]: 22.1 µM (inactive)
- GI50 [26]: 16.4 µM (inactive)
- GI50 [27]: 19.7 µM (inactive)
- GI50 [28]: 80.5 µM (inactive)
- GI50 [29]: 42.2 µM (inactive)
- GI50 [31]: 33.2 µM (inactive)
- GI50 [32]: 3.23 µM (inactive)
- GI50 [33]: 24.9 µM (inactive)
- GI50 [54]: 2.84 µM (inactive)
- GI50 [34]: > 100 µM (inactive)
- GI50 [55]: 21.3 µM (inactive)
- GI50 [35]: 70.1 µM (inactive)
- GI50 [37]: 27.9 µM (inactive)
- GI50 [38]: 15.7 µM (inactive)
- GI50 [39]: > 100 µM (inactive)
